Experimental data taken from patent US3939143A, “1-N-isoserylkanamycins and the production thereof” (Zaidan Hojin Biseibutsu Kagaku Kenkyu Kai, priority 1973, dated 1976).
Converted amounts (≈) assume the structure as drawn. Like-named read-outs stand apart in the source and are kept apart here.

Tests used:
[1] = test system: nucleotidyltransferase; details: adenylylation of 2"-hydroxyl group with ATP; cited from earlier work
[2] = test system: Bacillus anthracis; experiment: microbe, parasite or virus in culture; format: cell-based; details: 18 h, read-out: Minimum Inhibitory Concentration
[3] = test system: Escherichia coli NIHJ; experiment: Minimum inhibitory concentration, serial dilution on nutrient agar; format: cell-based; details: 18 h, read-out: Minimum Inhibitory Concentration
[4] = test system: Sarcina lutea PCI 1001; experiment: as above; format: cell-based; details: Micrococcus luteus, read-out: Minimum Inhibitory Concentration
[5] = test system: Klebsiella pneumoniae 22 No. 3038; experiment: as above; format: cell-based; details: 22NO.3038, 18 h, read-out: Minimum Inhibitory Concentration
[6] = test system: Escherichia coli LA290 R55; experiment: as above; format: cell-based; details: LA290R55, 18 h, read-out: Minimum Inhibitory Concentration
[7] = test system: Pseudomonas aeruginosa TI-13; experiment: as above; format: cell-based; details: TI13, 37°C, 18 hours
Method: (§1) The minimum inhibitory concentrations (mcg/ml) of 1-N-DL-isoserylkanamycin,1-N-DL-isoserylkanamycin B and 1-N-DL-isoseryl-3',4'-dideoxykanamycin B against various microorganisms were determined according to the serial dilution method using nutrient agar medium at 37°C, the estimation being effected after 18 hours incubation. For comparison purposes, the minimum inhibitory concentrations of kanamycin, kanamycin B and 3',4'-dideoxykanamycin B were also determined in the same manner and under the same conditions as mentioned above.
(§2) The antibacterial spectra of 1-N-DL-isoseryl-kanamycin (abbreviated as 1-IS-KM), 1-N-DL-isoseryl-kanamycin B (abbreviated as 1-IS-KMB) and 1-N-DL-isoseryl-3',4'-dideoxykanamycin B (abbreviated as 1-IS-DKB) are shown in the following table together with those of kanamycin (abbreviatedas KM), kanamycin B (abbreviated as KMB) and 3',4'-dideoxykanamycin B (abbreviated as DKB).

[8] = test system: Shigella flexneri 4b JS 11811; experiment: as above; format: cell-based; details: 4BJS11811, 37°C, 18 hours
Method: as §1, §2

[9] = test system: Pseudomonas aeruginosa A3; experiment: as above; format: cell-based; details: 37°C, 18 hours
Method: as §1, §2

[10] = test system: Shigella sonnei JS 11746; experiment: as above; format: cell-based; details: JS11746, 37°C, 18 hours
Method: as §1, §2

[11] = test system: Escherichia coli K-12 ML 1630; experiment: as above; format: cell-based; details: K12ML1630, 37°C, 18 hours
Method: as §1, §2

[12] = test system: Pseudomonas aeruginosa 99; experiment: as above; format: cell-based; details: read-out: Minimum Inhibitory Concentration
[13] = test system: Escherichia coli K-12 ML 1410; experiment: as above; format: cell-based; details: K12ML1410, 18 h, read-out: Minimum Inhibitory Concentration
[14] = test system: Escherichia coli LA290 R56; experiment: as above; format: cell-based; details: LA290R56, 18 h, read-out: Minimum Inhibitory Concentration
[15] = test system: Escherichia coli K-12; experiment: as above; format: cell-based; details: read-out: Minimum Inhibitory Concentration
[16] = test system: Pseudomonas aeruginosa GN315; experiment: as above; format: cell-based; details: read-out: Minimum Inhibitory Concentration
[17] = test system: Pseudomonas aeruginosa No.12; experiment: as above; format: cell-based; details: read-out: Minimum Inhibitory Concentration
[18] = test system: Escherichia coli K-12 ML 1629; experiment: as above; format: cell-based; details: read-out: Minimum Inhibitory Concentration
[19] = test system: Bacillus cereus ATCC 10702; experiment: as above; format: cell-based; details: read-out: Minimum Inhibitory Concentration
[20] = test system: Staphylococcus aureus Terajima; experiment: as above; format: cell-based; details: read-out: Minimum Inhibitory Concentration
[21] = test system: Proteus vulgaris OX 19; experiment: as above; format: cell-based; details: read-out: Minimum Inhibitory Concentration
[22] = test system: Escherichia coli LA290 R64; experiment: as above; format: cell-based; details: LA290R64, 18 h, read-out: Minimum Inhibitory Concentration
[23] = test system: Escherichia coli JR66/W677; experiment: as above; format: cell-based; details: read-out: Minimum Inhibitory Concentration
[24] = test system: Staphylococcus aureus FDA 209P; experiment: as above; format: cell-based; details: FDA209P, read-out: Minimum Inhibitory Concentration
[25] = test system: Salmonella typhosa T-63; experiment: as above; format: cell-based; details: Salmonella enterica, 18 h, read-out: Minimum Inhibitory Concentration
[26] = test system: Salmonella enteritidis 1891; experiment: as above; format: cell-based; details: Salmonella enterica, read-out: Minimum Inhibitory Concentration
[27] = test system: Shigella dysenteriae JS 11910; experiment: as above; format: cell-based; details: JS11910, 18 h, read-out: Minimum Inhibitory Concentration
[28] = test system: Staphylococcus aureus Smith; experiment: as above; format: cell-based; details: read-out: Minimum Inhibitory Concentration
[29] = test system: Mycobacterium smegmatis ATCC 607; experiment: as above; format: cell-based; details: Mycolicibacterium smegmatis, read-out: Minimum Inhibitory Concentration
[30] = test system: Escherichia coli W677; experiment: as above; format: cell-based; details: read-out: Minimum Inhibitory Concentration
[31] = test system: Corynebacterium bovis 1810; experiment: as above; format: cell-based; details: Corynebacterium bovis, 1810, 18 h, read-out: Minimum Inhibitory Concentration
[32] = test system: Klebsiella pneumoniae PCI 602; experiment: as above; format: cell-based; details: read-out: Minimum Inhibitory Concentration
[33] = test system: Escherichia coli K-12 ML 1410 R81; experiment: as above; format: cell-based; details: 18 h, read-out: Minimum Inhibitory Concentration
[34] = test system: Bacillus subtilis NRRL B-558; experiment: as above; format: cell-based; details: read-out: Minimum Inhibitory Concentration
[35] = test system: Bacillus subtilis PCI 219; experiment: as above; format: cell-based; details: read-out: Minimum Inhibitory Concentration
[36] = test system: gram-negative and gram-positive bacteria; experiment: antibacterial activity, in words; format: cell-based; details: for antibacterial activity relative to the DL-form (racemic form): optically active L- or D-isoseryl form
Method: as §1, §2

[37] = test system: mice; experiment: acute toxicity upon intravenous injection in mice; format: in vivo; details: optically active L- or D-isoseryl form
[38] = test system: kanamycin-resistant strains; details: phosphotransferase-producing resistant strains; cited from earlier work
[39] = test system: phosphotransferase; details: phosphorylation of the 3'-hydroxyl group; cited from earlier work
[40] = test system: Escherichia coli JR66/W677; details: nucleotidyltransferase-producing resistant strain; cited from earlier work
[41] = acute toxicity upon intravenous injection in mice; format: in vivo; details: mouse, in vivo; intravenous injection, mice
[42] = test system: drug-resistant strains of Escherichia coli and Pseudomonas aeruginosa; experiment: antibacterial activity against drug-resistant strains, in words; format: cell-based

NC[C@H]1O[C@H](O[C@H]2[C@H](O)[C@@H](O[C@H]3O[C@H](CO)[C@@H](O)[C@H](N)[C@H]3O)[C@H](N)C[C@@H]2N)[C@H](O)[C@@H](O)[C@@H]1O [KM, kanamycin]
inactivation by nucleotidyltransferase [1]: inactivating
MIC [2]: < 0.2 µg/mL
MIC [3]: 1.56 µg/mL (≈ 3.22 µM)
MIC ([4]; PCI1001, 18 h): 6.25 µg/mL (≈ 12.9 µM)
MIC [5]: > 100 µg/mL
MIC [6]: 100 µg/mL (≈ 206 µM)
MIC [7]: > 100 µg/mL
MIC [8]: 6.25 µg/mL (≈ 12.9 µM)
MIC [9]: 50 µg/mL (≈ 103 µM)
MIC [10]: 3.13 µg/mL (≈ 6.46 µM)
MIC [11]: > 100 µg/mL
MIC ([12]; Pseudomonas aeruginosa, 99, 18 h): > 100 µg/mL
MIC [13]: 1.56 µg/mL (≈ 3.22 µM)
MIC [14]: 12.5 µg/mL (≈ 25.8 µM)
MIC ([15]; K12, 18 h): 1.56 µg/mL (≈ 3.22 µM)
MIC ([16]; GN315, 18 h): > 100 µg/mL
MIC ([17]; NO.12, 18 h): 25 µg/mL (≈ 51.6 µM)
MIC ([18]; K12ML1629, 37°C, 18 hours): > 100 µg/mL
MIC ([19]; ATCC10702, 18 h): 1.56 µg/mL (≈ 3.22 µM)
MIC ([20]; 18 h): < 0.2 µg/mL
MIC ([21]; OX19, 18 h): 0.78 µg/mL (≈ 1.61 µM)
MIC [22]: 12.5 µg/mL (≈ 25.8 µM)
MIC ([23]; JR66/W677, 37°C, 18 hours): > 100 µg/mL
MIC ([24]; 18 h): 0.78 µg/mL (≈ 1.61 µM)
MIC [25]: 0.39 µg/mL (≈ 0.805 µM)
MIC ([26]; 18 h): 0.78 µg/mL (≈ 1.61 µM)
MIC [27]: 6.25 µg/mL (≈ 12.9 µM)
MIC ([28]; 18 h): < 0.2 µg/mL
MIC ([29]; ATCC607, 18 h): 0.78 µg/mL (≈ 1.61 µM)
MIC ([30]; W677, 18 h): 1.56 µg/mL (≈ 3.22 µM)
MIC [31]: 3.13 µg/mL (≈ 6.46 µM)
MIC ([32]; PCI602, 18 h): 0.78 µg/mL (≈ 1.61 µM)
MIC [33]: > 100 µg/mL
MIC ([34]; NRRLB558, 18 h): < 0.2 µg/mL
MIC ([35]; PCI219, 18 h): < 0.2 µg/mL

NC[C@@H](O)C(=O)N[C@@H]1C[C@H](N)[C@@H](O[C@H]2O[C@H](CN)[C@@H](O)[C@H](O)[C@H]2O)[C@H](O)[C@H]1O[C@H]1O[C@H](CO)[C@@H](O)[C@H](N)[C@H]1O [1-N-D-isoserylkanamycin]
antibacterial activity relative to the DL-form (racemic form) [36]: the same as those of 1-N-DL-isoserylkanamycin
toxicity relative to the DL-form [37]: the same as those of 1-N-DL-isoserylkanamycin

NC[C@H]1O[C@H](O[C@H]2[C@H](O)[C@@H](O[C@H]3O[C@H](CO)[C@@H](O)[C@H](N)[C@H]3O)[C@H](N)C[C@@H]2N)[C@H](O)C[C@@H]1O [3'-Deoxykanamycin]
activity against kanamycin-resistant strains [38]: actually effective
susceptibility to / inactivation by phosphotransferase [39]: not susceptible
activity against Escherichia coli JR66/W677 [40]: inactive

NCC(O)C(=O)N[C@@H]1C[C@H](N)[C@@H](O[C@H]2O[C@H](CN)[C@@H](O)[C@H](O)[C@H]2O)[C@H](O)[C@H]1O[C@H]1O[C@H](CO)[C@@H](O)[C@H](N)[C@H]1O (mixture of isomers) [1-IS-KM, 1-N-DL-isoserylkanamycin]
MIC [2]: < 0.2 µg/mL
MIC [3]: 1.56 µg/mL
MIC ([4]; PCI1001, 37°C, 18 hours): 3.12 µg/mL
MIC [5]: 1.56 µg/mL
MIC [6]: 1.56 µg/mL
MIC [7]: 3.13 µg/mL
MIC [8]: 3.13 µg/mL
MIC [9]: 3.13 µg/mL
MIC [10]: 1.56 µg/mL
MIC [11]: 1.56 µg/mL
MIC ([12]; Pseudomonas aeruginosa, 99, 37°C, 18 hours): 6.25 µg/mL
MIC [13]: 1.56 µg/mL
antibacterial activity ([36]; gram-negative and gram-positive bacteria sensitive to kanamycins): high antibacterial activity
MIC [14]: 0.78 µg/mL
MIC ([15]; K12, 37°C, 18 hours): 0.78 µg/mL
MIC ([16]; GN315, 37°C, 18 hours): > 100 µg/mL
MIC ([17]; NO.12, 37°C, 18 hours): 0.78 µg/mL
MIC ([18]; K12ML1629, 18 h): 1.56 µg/mL
MIC ([19]; ATCC10702, 37°C, 18 hours): 0.78 µg/mL
MIC ([20]; 37°C, 18 hours): < 0.2 µg/mL
MIC ([21]; OX19, 37°C, 18 hours): 0.39 µg/mL
MIC [22]: 0.78 µg/mL
MIC ([23]; JR66/W677, 18 h): 3.13 µg/mL
MIC ([24]; 37°C, 18 hours): 0.78 µg/mL
MIC [25]: 0.78 µg/mL
LD50 [41]: > 200 mg/kg
MIC ([26]; 37°C, 18 hours): 0.78 µg/mL
MIC [27]: 3.13 µg/mL
MIC ([28]; 37°C, 18 hours): 0.2 µg/mL
MIC ([29]; ATCC607, 37°C, 18 hours): 0.39 µg/mL
MIC ([30]; W677, 37°C, 18 hours): 0.78 µg/mL
MIC [31]: 1.56 µg/mL
MIC ([32]; PCI602, 37°C, 18 hours): 0.39 µg/mL
antibacterial activity [42]: high antibacterial activity
MIC [33]: 1.56 µg/mL
MIC ([34]; NRRLB558, 37°C, 18 hours): < 0.2 µg/mL
MIC ([35]; PCI219, 37°C, 18 hours): < 0.2 µg/mL

NC[C@H](O)C(=O)N[C@@H]1C[C@H](N)[C@@H](O[C@H]2O[C@H](CN)[C@@H](O)[C@H](O)[C@H]2O)[C@H](O)[C@H]1O[C@H]1O[C@H](CO)[C@@H](O)[C@H](N)[C@H]1O [1-N-L-isoserylkanamycin]
antibacterial activity relative to the DL-form (racemic form) [36]: the same as those of 1-N-DL-isoserylkanamycin
toxicity relative to the DL-form [37]: the same as those of 1-N-DL-isoserylkanamycin
